{"source": "patent US20250019700A1", "about": "“TREATING CHEMORESISTANT FORMS OF LEUKEMIA AND OTHER CANCERS THAT OVEREXPRESS RNA BINDING PROTEIN FXR1” (The General Hospital Corporation, priority 2021, published 2025)", "type_in_all_cases": "cell-based", "key": {"[1]": {"tested_on": "FXR1", "experiment": "Western blot of FXR1 levels in AraC treated THP1 cells", "conditions": "AraC treated surviving THP1 cells compared to untreated (1 μM AraC, FIG. 1A)", "procedure": "(§1) THP1 cells were cultured in […] media supplemented with 10% fetal bovine serum (FBS), 2 mM L-Glutamine, 100 μg/mL streptomycin and 100 U/ml penicillin at 37° C. in 5% CO2. SS THP1 cells were prepared by washing with PBS followed by serum-starvation at a density of 2×10^5 cells/mL and AraCS cells, by treatment with indicated concentrations of AraC for indicated periods of time. THP1 (TIB-202) and MV4:11 (CRL-9591) were obtained from ATCC. MOLM13 (ACC554) were obtained from DSMZ. Cell lines kindly provided by David Scadden.\n(§2) Cells were collected and resuspended in lysis buffer containing 40 mM Tris-HCl (pH 7.4), 6 mM MgCl2, 150 mM NaCl, 0.1% NP-40, 1 mM DTT, […], 17.5 mM β-glycerophosphate, 5 mM NaF and protease inhibitors. Samples containing 80 μg of protein were loaded onto 4%-20% gradient SDS-PAGE (Bio-Rad) or 16% SDS-PAGE (Invitrogen), transferred to PVDF membranes and processed for immunoblotting.\nAntibodies against FXR1 (used for Western), Actin, Tubulin were from Millipore; NOLC1, DDX21, PolR1D, RPLP0, RPLP2, RPL29, RPL11, FXR1 (used for Immunoprecipitation) were from Protein Tech; PKR, P—PKR, EIF2α, P-EIF2α, GCN2 (used for immunoprecipitation) were from Cell Signaling; P-GCN2, GCN2 (used for Western) were from abcam."}, "[2]": {"tested_on": "PKR", "experiment": "Western blot of phosphorylated PKR in AraC treated cells", "conditions": "AraC treated cells (0, 1, 5 μM AraC), normalized to total PKR", "protocol": "Cells were collected and resuspended in lysis buffer containing 40 mM Tris-HCl (pH 7.4), 6 mM MgCl2, 150 mM NaCl, 0.1% NP-40, 1 mM DTT, 20 mM, 17.5 mM β-glycerophosphate, 5 mM NaF and protease inhibitors. Samples containing 80 μg of protein were loaded onto 4%-20% gradient SDS-PAGE (Bio-Rad) or 16% SDS-PAGE (Invitrogen), transferred to PVDF membranes and processed for immunoblotting. Antibodies against FXR1 (used for Western), Actin, Tubulin were from Millipore; NOLC1, DDX21, PolR1D, RPLP0, RPLP2, RPL29, RPL11, FXR1 (used for Immunoprecipitation) were from Protein Tech; PKR, P—PKR, EIF2α, P-EIF2α, GCN2 (used for immunoprecipitation) were from Cell Signaling; P-GCN2, GCN2 (used for Western) were from abcam."}, "[3]": {"tested_on": "28S rRNA snoRA22 sites U4966 and U4975", "experiment": "Low dNTP CMCT qPCR assay of rRNA pseudouridylation", "conditions": "AraC cells (THP1)", "procedure": "For analysis of 2′O-methylation, RNA was prepared from indicated cells. Reverse transcription (as described above in qPCR) was performed with primers in the reverse orientation from the modification site on ribosomal RNA. Two different dNTP concentrations were used for each primer, low (0.025 mM) and high (2.5 mM). qPCR was done with the resulting cDNA using primers at forward and reverse orientation to the modified sites. Fold change in modification was calculated based on difference of Ct values in the low and high dNTP conditions. For analyzing pseudouridylation, first the RNA was treated with CMCT (1-cyclohexyl-(2-morpholinoethyl) carbodiimide metho-p-toluene sulfonate) under alkaline conditions. Rest of the experiment was done as described above for 2′O-methylation."}, "[4]": {"tested_on": "FXR1 OE cells (THP1)", "experiment": "Chemosurvival (fraction of cell viability) of FXR1 OE cells treated with AraC plus inhibitor", "procedure": "as §1\nTHP1 FXR1 OE cell lines were created by infecting cells with an FXR1 containing retroviral vector for constitutive over expression of FXR1. Corresponding control cell lines were made by infection with empty vector.\n(§3) Cytarabine (AraC), Trans-ISRIB, FX-1, and Toyocamycin were obtained from Cayman Chemicals. For polysome analysis, FXR1 OE and control cells were treated with 1 μM trans-ISRIB for 24 h. For cell viability FXR1 OE and control cells were treated individually or with a combination of 5 μM AraC and 1 μM trans-ISRIB for 24 h; 100 nM Toyocamycin and 1 μM AraC; 10 μM FX-1 and 5 μM AraC."}, "[5]": {"tested_on": "G0 cells (THP1)", "experiment": "Chemosurvival of G0 cells treated with ISRIB and AraC", "conditions": "ISRIB and AraC (FIG. 4H)", "procedure": "as §1, §3"}, "[6]": {"tested_on": "FXR1-overexpression cells", "experiment": "Polysome analysis followed by qPCR of mRNAs, with or without ISRIB", "conditions": "FXR1 OE cells, 1 μM trans-ISRIB for 24 h", "procedure": "Sucrose was dissolved in lysis buffer containing 100 mM KCl, 5 mM MgCl2, 2 mM DTT and 10 mM Tris-HCl (pH 7.4). Sucrose gradients from 10% to 55% were prepared in ultracentrifuge tubes (Beckman). Harvested cells were rinsed with ice-cold PBS and resuspended in lysis buffer with 1% Triton X-100 and 40 U/mL […] (New England Biolabs) for 20 minutes with intermittent tapping on ice. After centrifugation of cell lysates at 12,000×g for 20 minutes, supernatants were loaded onto sucrose gradients followed by ultracentrifugation (Beckman Coulter Optima L90) at 32,500×rpm at 4° C. for 80 min in the SW40 rotor. Samples were separated by density gradient fractionation system (Biocomp Piston Gradient Fractionation). RNAs were purified by using TRIzol (Invitrogen) from heavy polysome fractions and whole cell lysates. The synthesized cDNA probes from WT Expression Kit (Ambion) were hybridized to Gene Chip Human Transcriptome Array 2.0 (Affymetrix) and analyzed by the Partners Healthcare Center for Personalized Genetic Medicine Microarray and BUMC facilities. Gene ontology analysis for differentially expressed translatome or proteome was conducted by DAVID 6.7 tools. Molecular signatures enriched in FXR1 OE and Control cells were identified by Gene Set Enrichment Analysis (GSEA).\nTotal RNA was isolated using TRIzol (Invitrogen) according to the manufacturer's instructions. […]"}, "[7]": {"tested_on": "ATF4", "experiment": "Western blot of non-canonical translation target ATF4 with ISRIB", "conditions": "in the presence of ISRIB", "procedure": "as §2"}}}
{"smiles": "Nc1ccn([C@@H]2O[C@H](CO)[C@@H](O)[C@@H]2O)c(=O)n1", "note": "[AraC, Cytarabine]", "values": [{"measurement": "FXR1 protein level", "setting": "[1]", "value": "increases"}, {"measurement": "phosphorylation and activation of PKR", "setting": "[2]", "value": "increased phosphorylation and activation"}, {"measurement": "rRNA pseudouridylation at snoRA22 sites on 28S at U4966 and U4975", "setting": "[3]", "value": "increases"}]}
{"smiles": "O=C(COc1ccc(Cl)cc1)NC1CCC(NC(=O)COc2ccc(Cl)cc2)CC1", "note": "(stereo not drawn) [ISRIB]", "values": [{"measurement": "chemosurvival", "setting": "[4]; FXR1 OE cells, 1 μM trans-ISRIB combined with 5 μM AraC, 24 h, compared to buffer and AraC", "value": "reduced chemosurvival"}, {"measurement": "chemosurvival", "setting": "[5]", "value": "reduced chemosurvival"}, {"measurement": "polysome association of mRNAs that are upregulated in FXR1-overexpressing cells", "setting": "[6]", "value": "reduced polysome association"}, {"measurement": "polysome association of other genes like vinculin", "setting": "[6]", "value": "without affecting"}, {"measurement": "level of known non-canonical targets such as ATF4", "setting": "[7]", "value": "decrease"}]}
{"smiles": "N#Cc1cn([C@@H]2O[C@H](CO)[C@@H](O)[C@H]2O)c2ncnc(N)c12", "note": "[Toyocamycin]", "values": [{"measurement": "chemosurvival", "setting": "[4]; 100 nM Toyocamycin and 1 μM AraC, FXR1 OE and control cells (FIG. 4I)", "value": "decreased"}]}
